# According to PubChem BioAssay AID463203 (Broad Institute, 2010):
# Active and inactive are the calls of the source.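 How the source made its calls: active means more than half of replicate measurements showing over 20% loss of kinase signal relative to plate controls; inconclusive means some but at most half of replicates over 20% loss; inactive means no replicate over 20% signal loss.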
# Target: Glycogen synthase kinase-3 alpha (Homo sapiens) (UniProt P49840)
# Test: concentration-response blocking of human GSK3A – biochemical, luminescence, cell-free homogeneous, retest, dose response (AID 463203)
# Details: GSK-3 alpha enzyme, ADP-Glo luminescence, 60 min
# Chain of Glycogen synthase kinase-3 alpha (Homo sapiens) (P49840 whole entry, looked up): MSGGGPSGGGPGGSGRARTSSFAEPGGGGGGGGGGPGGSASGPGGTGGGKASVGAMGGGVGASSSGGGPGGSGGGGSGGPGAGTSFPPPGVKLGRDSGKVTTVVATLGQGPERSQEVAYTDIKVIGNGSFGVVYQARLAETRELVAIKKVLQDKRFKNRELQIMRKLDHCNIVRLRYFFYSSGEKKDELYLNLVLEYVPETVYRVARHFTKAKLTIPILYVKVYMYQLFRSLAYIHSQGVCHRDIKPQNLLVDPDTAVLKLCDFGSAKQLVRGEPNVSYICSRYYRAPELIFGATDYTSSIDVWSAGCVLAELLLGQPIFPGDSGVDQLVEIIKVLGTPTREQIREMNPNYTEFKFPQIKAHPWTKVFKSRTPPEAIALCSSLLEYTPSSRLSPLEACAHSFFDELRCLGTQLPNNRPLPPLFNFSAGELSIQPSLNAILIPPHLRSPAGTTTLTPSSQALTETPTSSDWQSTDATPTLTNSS
row,SMILES,AC50
1,NC(=O)c1c(NC(=O)C(=O)N2CCOCC2)sc2c1CCC2,> 30 µM (inactive)
2,CC(=O)Nc1cccc(-c2csc(Nc3ccc(C)cn3)n2)c1,> 30 µM (inactive)
3,O=C(O)c1ccc(Cl)c(NC(=O)C2CCCN2S(=O)(=O)c2cccc3nsnc23)c1 (stereo not given),19.1 µM
4,Cc1ccc(C(=O)Nc2nnc(C)s2)cc1,> 30 µM (inactive)
5,O=C(NCCCCCCNC(=O)OCCO)OCCO,> 30 µM (inactive)
6,O=C(CSc1n[nH]c(=O)n1-c1ccc2c(c1)OCCO2)Nc1ccccc1,> 30 µM (inactive)
7,O=C(NC1CCCC1)c1ccc(Cn2c(=O)[nH]c3ccsc3c2=O)cc1,> 30 µM (inactive)
8,N#Cc1c(NC(=O)CSc2n[nH]c(N)n2)oc(-c2ccccc2)c1-c1ccccc1,> 30 µM (inactive)
9,CC1(C)CC(=O)C(C(C2=C(O)CC(C)(C)CC2=O)c2cccc(O)c2)C(=O)C1 (stereo not given),> 30 µM (inactive)
10,COCc1nnc(NC(=O)CCCCCN2C(=O)c3ccccc3C2=O)s1,> 30 µM (inactive)
11,CCNc1ccc2noc3c2c1C(=O)c1ccccc1-3,10.8 µM
12,CCN(CC)S(=O)(=O)c1ccc2oc(C(=O)N3CCOCC3)c(C)c2c1,> 30 µM (inactive)
13,O=C(Nc1ccccc1N1CCOCC1)c1ccc(S(=O)(=O)NCc2ccco2)cc1,> 30 µM (inactive)
14,COc1ccc(CCNC2=C(Cl)C(=O)N(Cc3ccccc3)C2=O)cc1OC,> 30 µM (inactive)
15,CC(C)NC(=O)Nc1n[nH]c(Nc2ccc(Cl)cc2)n1,4.87 µM
16,CCCCOc1ccc(-c2nnc(N)s2)cc1,> 30 µM (inactive)
17,CC(CC(=O)Nc1ncc([N+](=O)[O-])s1)c1ccccc1 (stereo not given),5.94 µM
18,Cc1[nH]c2ccccc2c1N=Nc1cccc(C(=O)O)c1,> 30 µM (inactive)
19,Cc1ccc(C(=O)N2NC(c3ccccc3F)C3C(=O)N(c4cccc(C)c4)C(=O)C32)cc1 (stereo not given),> 30 µM (inactive)
20,O=C(c1ccc(Cl)cc1)c1cnc(Nc2ccccc2)s1,> 30 µM (inactive)
21,c1ccc2sc(-c3ccc4c(c3)OCO4)nc2c1,> 30 µM (inactive)
22,CCc1ccc(/C=c2\s/c(=C\C(=O)C(C)(C)C)[nH]c2=O)cc1,> 30 µM (inactive)
23,COC(=O)[C@@H](NC(=O)NCc1ccccc1F)C(C)C,> 30 µM (inactive)
24,CCOc1cccc2sc(=NC(=O)c3ccco3)n(CC(=O)OC)c12,7.61 µM
25,CCOC(=O)CSc1ncnc2c(C(=O)OCC)c3n(c12)CCC3,> 30 µM (inactive)
26,COc1ccccc1N=c1oc2c(OC)cccc2cc1C(=O)NCc1ccco1,> 30 µM (inactive)
27,O=C(NCCN1CCN(Cc2ccccc2Cl)CC1)Nc1ccccc1,> 30 µM (inactive)

row,SMILES,AC50
1,O=C(c1ccc(F)cc1)c1cnc(Nc2ccccc2)s1,> 30 µM (inactive)
2,O=C(Nc1ccccc1-c1nnc(SCc2ccccc2)o1)c1ccccc1,> 30 µM (inactive)
3,COc1ccccc1-c1noc(CSc2nc(C)cc(=O)[nH]2)n1,> 30 µM (inactive)
4,O=C(COC(=O)c1cccc(S(=O)(=O)N2CCOCC2)c1)Nc1ccc(Cl)cn1,7.3 µM
5,Cn1c(=O)c2[nH]cnc2n(-c2ccccc2)c1=O,> 30 µM (inactive)
6,COc1cc(/C=N/n2nnnc2N)ccc1OCC#N,> 30 µM (inactive)
7,O=C(C[n+]1ccccc1)c1ccc(Cl)cc1,> 30 µM (inactive)
8,CCOC(=O)c1ccc(N2C=C(C(=O)OC)C(c3ccc(OC)c(O)c3)C(C(=O)OC)=C2)cc1,> 30 µM (inactive)
9,CCN1CCN(c2nc(N(C)c3ccccc3)nc(N)c2[N+](=O)[O-])CC1,> 30 µM (inactive)
10,NC(=O)c1sc2nc3c(c(-c4ccccc4)c2c1N)CCC3,13.9 µM
11,O=c1[nH]nnc2sc3c(c12)CCCC3,> 30 µM (inactive)
12,Cc1ccc(S(=O)(=O)Nc2cccc3cccnc23)cc1,> 30 µM (inactive)
13,COc1ccc(N=c2oc3c(OC)cccc3cc2C(=O)NCc2ccco2)cc1OC,> 30 µM (inactive)
14,Cc1ccc(-c2cn3cccnc3n2)cc1NC(=O)c1ccc(Br)o1,> 30 µM (inactive)
15,CCSc1nc2sc3c(c2c(=O)n1-c1ccccc1C)CCN(C)C3,> 30 µM (inactive)
16,CC(C)COc1ncnc2c1sc1nc3c(cc12)COC(C)(C)C3,> 30 µM (inactive)
17,C/C(=N\NC(=O)c1nnn(-c2nonc2N)c1CN(C)C)c1ccco1,> 30 µM (inactive)
18,Cc1cc(Nc2ccc(C(=O)O)cc2)nc(N)n1,> 30 µM (inactive)
19,CN(Cc1c(C(=O)N/N=C/c2cccc(O)c2)nnn1-c1nonc1N)c1ccccc1,2.8 µM
20,Fc1cccc(/C=N/Nc2cc(N3CCOCC3)ncn2)c1,> 30 µM (inactive)
21,CCN1CCN(c2c(Cl)cccc2NC(=O)c2ccc(Br)o2)CC1,2.59 µM
22,O=[N+]([O-])c1ccc(NCCCN2CCOCC2)nc1,> 30 µM (inactive)
23,N#CC1=C2SCN(c3ccc(F)cc3)CN2C(=O)CC1c1cccc(F)c1 (stereo not given),29.4 µM
24,COc1ccc(/C=C2\Oc3cc(OCC(=O)N4CC(O)C[C@H]4C(=O)O)ccc3C2=O)c(OC)c1OC (stereo not given in full),> 30 µM (inactive)
25,COc1cccc(/C=N/NC(=O)c2nnn(-c3nonc3N)c2-c2cccs2)c1,0.899 µM
26,CC(C)N=C(NC#N)SCc1ccc(F)cc1,> 30 µM (inactive)
27,O=C1N/C(=N\S(=O)(=O)Cc2ccccc2)S/C1=C/c1cccc([N+](=O)[O-])c1,> 30 µM (inactive)

row,SMILES,AC50
1,Cc1ccc(Sc2ccc(NC(=O)CCl)cc2)c(C)c1,> 30 µM (inactive)
2,COc1cc(/C=C2\Oc3ccc(C#Cc4ccc(O)cc4)cc3C2=O)cc(OC)c1,> 30 µM (inactive)
3,Fc1ccc(Nc2nc(-c3ccncc3)nc3ccccc23)cc1F,> 30 µM (inactive)
4,Clc1ccccc1C1=Nn2c(nnc2-c2ccco2)SC1,30.4 µM
5,COc1ccc(Br)cc1C(=O)Nc1cccc(NC(=O)c2ccco2)c1,> 30 µM (inactive)
6,CCC(=NCc1cccnc1)c1c(O)n(C2CCCCC2)c(=O)[nH]c1=O,> 30 µM (inactive)
7,Nc1nc(Nc2ccc(Cl)cc2)n[nH]1,> 30 µM (inactive)
8,Cc1cc(=O)[nH]c2ccccc12,> 30 µM (inactive)
9,Nc1nonc1-n1nnc(C(=O)N/N=C/c2ccccc2Cl)c1-c1ccccc1,> 30 µM (inactive)
10,CO/N=C/c1ccc(N2CCCC2)c([N+](=O)[O-])c1,> 30 µM (inactive)
11,Cc1ccnc(NC(=O)CCC(=O)N(CC(=O)NCc2ccccc2)Cc2ccco2)c1,13.4 µM
12,O=[N+]([O-])c1ccc(NCCCN2CCOCC2)c(Cl)c1,> 30 µM (inactive)
13,NS(=O)(=O)c1ccc(Nc2nc(-c3cccnc3)cs2)cc1,> 30 µM (inactive)
14,COc1ccc2[nH]c(=O)c3c(c2c1)OC(C)(C)C=C3,10.4 µM
15,COc1ccc(-c2cn3cccnc3n2)cc1NC(=O)C1CCCC1,> 30 µM (inactive)
16,CCCCn1c(SCC(=O)Nc2sc3c(c2C(N)=O)CCC3)nnc1-c1ccccc1,> 30 µM (inactive)
17,Cc1cccc(C(=O)OCC(=O)Nc2c(C)n(C)n(-c3ccccc3)c2=O)c1,> 30 µM (inactive)
18,COc1cc(/C=N/NC(=O)c2cccc(C(=O)N/N=C/c3ccc(O)c(OC)c3)n2)ccc1O,> 30 µM (inactive)
19,Cc1cc2nc(-c3cccnc3SCC(=O)NC3CC3)[nH]c2cc1C,> 30 µM (inactive)
20,COc1ccc(-n2c(O)c(C(C)=NCCCn3ccnc3)c(=O)[nH]c2=O)cc1,19 µM
21,CNS(=O)(=O)c1cccc(C(=O)OCC(=O)Nc2ccc(Cl)cn2)c1,6.77 µM
22,O=C(O)COc1c(Cl)cc(/C=C2/NC(=O)NC2=O)cc1Br,23 µM
23,COc1ccc2cc(C(=O)NCc3ccco3)c(=O)oc2c1,> 30 µM (inactive)
24,CCCC(=O)NC(=S)Nc1cccc(C(C)=O)c1,> 30 µM (inactive)
25,CCOc1ccc(-c2nonc2NC(=O)c2ccco2)cc1,> 30 µM (inactive)
26,Cc1ccnc(NC(=O)CN2C(=O)c3ccccc3S2(=O)=O)c1,> 30 µM (inactive)
27,O=c1[nH]c(=O)n(CCC2=CCCCC2)c(O)c1C=NCCCn1ccnc1,28.6 µM

row,SMILES,AC50
1,c1nc(NC2CCCCCC2)c2[nH]cnc2n1,29.8 µM
2,CCOC(=O)c1[nH]c(C)c(C(=O)OCCOc2cccc(C)c2)c1C,> 30 µM (inactive)
3,COc1ccc(CCNc2nc(C)c(C(C)=O)s2)cc1OC,> 30 µM (inactive)
4,Cc1cc(O)c2c(-c3ccccc3)cc(=O)oc2c1,> 30 µM (inactive)
5,NC1=NC(=O)/C(=C\c2ccco2)S1,> 30 µM (inactive)
6,C=CCn1c(O)c(C=NC2CCN(Cc3ccccc3)CC2)c(=O)[nH]c1=O,> 30 µM (inactive)
7,c1ccc2c(c1)ccc1nnc(SCc3ccc4c(c3)OCO4)n12,> 30 µM (inactive)
8,N#Cc1c(-c2ccncc2)c2c([nH]c1=O)-c1ccccc1OC2,> 30 µM (inactive)
9,NC(=O)c1ccsc1NC(=O)C1CCCCC1,> 30 µM (inactive)
10,Oc1ccc(-c2nc3ncccn3c2Nc2ccc3c(c2)OCO3)cc1,6.33 µM
11,NS(=O)(=O)c1ccc(N=Nc2ccc(=O)[nH]c2O)cc1,6.56 µM
12,O=C(CSCc1ccccn1)Nc1ccccc1,> 30 µM (inactive)
13,c1ccc2c3c([nH]c2c1)-c1[nH]ncc1CC3,25.1 µM
14,O=C1c2cnc3nc(SCc4ccc(Cl)cc4)nn3c2CC2c3ccccc3CCN12 (stereo not given),> 30 µM (inactive)
15,NC(=O)c1nnn(-c2ccccc2)c1N,> 30 µM (inactive)
16,Cc1nc(NCC2CCCO2)nc2c1C(=O)CC(C)(C)C2 (stereo not given),> 30 µM (inactive)
17,COc1cc(/C=C2\S/C(=N/S(=O)(=O)Cc3ccccc3)NC2=O)c([N+](=O)[O-])cc1OC,> 30 µM (inactive)
18,Cc1cc2nc(-c3ccc(=O)[nH]c3)n(Cc3ccccc3)c2cc1C,> 30 µM (inactive)
19,O=C(CSc1nc2[nH]ncc2c(=O)n1-c1ccccc1)NCCc1ccccc1,8.62 µM
20,COc1ccc(OC)c(/C=C2\Oc3cc(OCC(=O)N4CC(O)C[C@H]4C(=O)O)ccc3C2=O)c1 (stereo not given in full),> 30 µM (inactive)
21,OCc1nnn(-c2ccccc2)c1CO,> 30 µM (inactive)
22,Nc1nc(NCCc2ccccc2)nc(NCc2ccccc2)c1[N+](=O)[O-],1.66 µM
23,Cc1c(C(=O)N2CCOCC2)oc2ccc(S(=O)(=O)N3CCCCCC3)cc12,> 30 µM (inactive)
24,CCOC(=O)c1cc(C(=O)OCC)c2cc(Br)ccc2n1,> 30 µM (inactive)
